Measured values reported in PMC5554537 (Frontiers in Pharmacology, 2017).
Read-outs that look alike come from different tables or passages of the source.

What was measured:
[1] = Plasma, liver and brain PK after i.p. dosing with M14; type: in vivo; conditions: i.p. M14 135 mg/kg; for half-life: read-out: Terminal T1/2
Description: Concentration-time data were analyzed by non-compartmental analysis using Phoenix WinNonlin (ver 6.4, Build 6.4.0768 Pharsight, United States); all AUC values were extrapolated to infinity using the linear trapezoidal rule. A compartmental model for plasma PK after dosing with SN30000 or M14 was fitted using Phoenix NLME v1.3 with random effects on the metabolite volumes of distribution, and temperature effects based on the observed body temperature at the last measurement time. Temperature effects were added or removed until there was no significant change in the log likelihood. Model fits were further assessed by visual inspection of the residuals and predicted PK.

[2] = Stability in mouse plasma (QC samples); type: physicochemical
From the text: using octa-deuterated internal standards of SN30000, M13 and M14 synthesised as previously reported (Wang et al., 2012). Intra- and inter-day precision (expressed as relative standard deviation (RSD) and accuracy (expressed as percentage of the nominal value) were deter mined by analy sis of replicates (n=6) of low and high quality control (QC) samples on three different days. The lower limit of quantitation (LLOQ) was defined as the lowest concentration providing RSD and accuracy < 20%. Recovery from plasma and liver ho mogenates was tested at the three QC levels. The recoveries were evaluated by comparing extracted samples with blank extracted solutions spiked with analytes of the same amount.
Matrix effects, defined as the change in response due to the presence of other substances in the samples, were evaluated by comparing the analytes diluted into the blank plasma or liver extracted solution with that of the same stock solutions diluted in water. Three different concentration levels (low, medium and high QC) were evaluated by analysing three samples at each level. Accuracy , precision, recovery and matrix effects were all acceptable over the concentration ranges evaluated for plas ma (Supplementary Table 1) and for liver homogenates (Supplementary Table 2).
Stability of the analytes in mouse plasma (Supplementary Table 3) or liver homogenate (Supplementary Table 4) was confirmed during holding of QC samples on ice for up to 2 h under nor mal laboratory lighting, although there was a trend towards loss of SN30000 in plasma samples held in clear microcentrifuge tubes which may reflect the known photosensitivity of the compound (Gu et al., 2014). This loss was reduced by use of red microcentrifuge tubes, and eliminated by black tubes. Stability in both matrices was also confir med for one month storage at -80°C and for three freeze-thaw cycles, while MeOH-deproteinised samples w ere stable for 12 h at 4°C in the autosampler (Supplementary Tables

CHO/POR cells = assay: Redox cycling: non-respiratory O2 consumption and H2O2 generation; type: cell-based; conditions: rotenone-inhibited aerobic CHO/POR cells, cumulative addition
Description: The Chinese hamster ovary cell line 51D1.3 (herein called CHO) and a stable transfectant expressing a soluble form of human P450 oxidoreductase (51D1.3/sPOR, herein called CHO/POR) ([Gu et al., 2009]), were grown in spinner flasks in αMEM plus 5% fetal bovine serum. Late log phase cultures were harvested by centrifugation, resuspended at 5 × 10^5 cells/mL in phenol red-free high-glucose DMEM (Invitrogen) supplemented with 4 mM Glutamax-1, 1 mM sodium pyruvate and 5% FBS. Stirred cell suspensions (2 mL) were transferred to an OXYBOROS O2K oxygraph for simultaneous polarographic measurement of non-respiratory O2 consumption and fluorimetric measurement of H2O2 generation as previously ([Hunter et al., 2012]). Bovine liver superoxide dismutase (10 U), horseradish peroxidase (10 U), Amplex UltraRed (50 nmol) and rotenone (1 nmol), all from Molecular Probes Invitrogen (Eugene, OR), were injected and cumulative drug additions (from saline stock solutions) were made every ∼5 min once endogenous rates had stabilized. Signals were recorded every 2 s, and flux derivatives were estimated ∼2 min after each addition using a Savitzky–Golay smoothing filter (40 data point window) in DATLAB version 4.3.
Supplementary Figure 4. Time-dependent changes in oxy gen consu mption and H2O2 formation rates induced by SN30000 in rotenone-inhibited CHO/POR cell suspensions, monitored with an OXYBOROS O2K oxygraph. Conditions of the experiment were identical to Fig. 5 except that SN30000 was added as a single bolus to separate cell suspension, rather than by cu mulative addition. A: Representative traces for oxygen consu mption and H2O2 formation rates for a single culture when SN30000 was added to a final concentration of 600 µM, at 4 min. Peak rates were established within 2 min, followed by a decline to a new steady state at approximately 1/3rd of the maximu m rate. Cell viability was > 97% by try pan […]
killing. […]

[3] = plasma deproteinised in 3 vol MeOH, 12 h autosampler at 4°C, nominal SN30000 0.5, M14 0.25, M13 0.1 µM
[4] = plasma deproteinised in 3 vol MeOH, 12 h autosampler at 4°C, nominal SN30000 5, M14 2.5, M13 1 µM
[5] = plasma deproteinised in 3 vol MeOH, 12 h autosampler at 4°C, nominal SN30000 50, M14 25, M13 10 µM
[6] = plasma, 1 month at -80°C, nominal SN30000 0.5, M14 0.25, M13 0.1 µM
[7] = plasma, 1 month at -80°C, nominal SN30000 5, M14 2.5, M13 1 µM
[8] = plasma, 1 month at -80°C, nominal SN30000 50, M14 25, M13 10 µM
[9] = plasma, 1 h on ice, black vial, nominal SN30000 0.5, M14 0.25, M13 0.1 µM
[10] = plasma, 1 h on ice, black vial, nominal SN30000 5, M14 2.5, M13 1 µM
[11] = plasma, 1 h on ice, black vial, nominal SN30000 50, M14 25, M13 10 µM
[12] = plasma, 1 h on ice, clear vial, nominal SN30000 0.5, M14 0.25, M13 0.1 µM
[13] = plasma, 1 h on ice, clear vial, nominal SN30000 5, M14 2.5, M13 1 µM
[14] = plasma, 1 h on ice, clear vial, nominal SN30000 50, M14 25, M13 10 µM
[15] = plasma, 1 h on ice, red vial, nominal SN30000 0.5, M14 0.25, M13 0.1 µM
[16] = plasma, 1 h on ice, red vial, nominal SN30000 5, M14 2.5, M13 1 µM
[17] = plasma, 1 h on ice, red vial, nominal SN30000 50, M14 25, M13 10 µM
[18] = plasma, 2 h on ice, black vial, nominal SN30000 0.5, M14 0.25, M13 0.1 µM
[19] = plasma, 2 h on ice, black vial, nominal SN30000 5, M14 2.5, M13 1 µM
[20] = plasma, 2 h on ice, black vial, nominal SN30000 50, M14 25, M13 10 µM
[21] = plasma, 2 h on ice, clear vial, nominal SN30000 0.5, M14 0.25, M13 0.1 µM
[22] = plasma, 2 h on ice, clear vial, nominal SN30000 5, M14 2.5, M13 1 µM
[23] = plasma, 2 h on ice, clear vial, nominal SN30000 50, M14 25, M13 10 µM
[24] = plasma, 2 h on ice, red vial, nominal SN30000 0.5, M14 0.25, M13 0.1 µM
[25] = plasma, 2 h on ice, red vial, nominal SN30000 5, M14 2.5, M13 1 µM
[26] = plasma, 2 h on ice, red vial, nominal SN30000 50, M14 25, M13 10 µM
[27] = plasma, three freeze-thaw cycles, nominal SN30000 0.5, M14 0.25, M13 0.1 µM
[28] = plasma, three freeze-thaw cycles, nominal SN30000 5, M14 2.5, M13 1 µM
[29] = plasma, three freeze-thaw cycles, nominal SN30000 50, M14 25, M13 10 µM

c1c2c(cc3nc(CCCN4CCOCC4)nnc13)CCC2 [M13]
half-life ([1]; NIH-III nude, mouse, ip, brain): 26 min
half-life ([1]; NIH-III nude, mouse, ip, liver): 32.7 min
Cmax ([1]; NIH-III nude, mouse, ip, plasma, read-out: Cmax): 4 ± 0.63 µM
half-life ([1]; NIH-III nude, mouse, ip, plasma): 40 min
AUC ([1]; brain): 5.3 µmol·h/kg
Cmax ([1]; brain): 11.0 ± 1.6 µmol/kg
AUC ([1]; liver): 14.9 µmol·h/kg
Cmax ([1]; liver): 34.1 ± 5.4 µmol/kg
AUC ([1]; plasma): 1.79 µmol·h/kg
Bias [2, 3]: -3.42%
Measured conc [2, 3]: 0.10 µM
Bias [2, 4]: -1.26%
Measured conc [2, 4]: 0.99 µM
Bias [2, 5]: 5.41%
Measured conc [2, 5]: 10.54 µM
Bias [2, 6]: 1.68%
Measured conc [2, 6]: 0.10 µM
Bias [2, 7]: 1.94%
Measured conc [2, 7]: 1.00 µM
Bias [2, 8]: 1.85%
Measured conc [2, 8]: 11.05 µM
Bias [2, 9]: -7.00%
Measured conc [2, 9]: 0.09 µM
Bias [2, 10]: -7.17%
Measured conc [2, 10]: 0.93 µM
Bias [2, 11]: 5.90%
Measured conc [2, 11]: 10.59 µM
Bias [2, 12]: -7.05%
Measured conc [2, 12]: 0.09 µM
Bias [2, 13]: -3.76%
Measured conc [2, 13]: 0.96 µM
Bias [2, 14]: -3.61%
Measured conc [2, 14]: 9.64 µM
Bias [2, 15]: -5.72%
Measured conc [2, 15]: 0.09 µM
Bias [2, 16]: -5.29%
Measured conc [2, 16]: 0.95 µM
Bias [2, 17]: 0.10%
Measured conc [2, 17]: 10.01 µM
Bias [2, 18]: -0.52%
Measured conc [2, 18]: 0.10 µM
Bias [2, 19]: 1.13%
Measured conc [2, 19]: 1.01 µM
Bias [2, 20]: 0.55%
Measured conc [2, 20]: 10.06 µM
Bias [2, 21]: -9.85%
Measured conc [2, 21]: 0.09 µM
Bias [2, 22]: -4.92%
Measured conc [2, 22]: 0.95 µM
Bias [2, 23]: -8.95%
Measured conc [2, 23]: 9.10 µM
Bias [2, 24]: -7.29%
Measured conc [2, 24]: 0.09 µM
Bias [2, 25]: -4.71%
Measured conc [2, 25]: 0.95 µM
Bias [2, 26]: -3.91%
Measured conc [2, 26]: 9.61 µM
Bias [2, 27]: -4.05%
Measured conc [2, 27]: 0.10 µM
Bias [2, 28]: -2.61%
Measured conc [2, 28]: 0.97 µM
Bias [2, 29]: 4.39%
Measured conc [2, 29]: 10.44 µM

O=C(O)CCc1nc2cc3c(cc2[n+]([O-])n1)CCC3 [M18]
half-life ([1]; NIH-III nude, mouse, in vivo, ip, 135 mg/kg, liver): 144 min
Cmax ([1]; NIH-III nude, mouse, in vivo, ip, 135 mg/kg, plasma, read-out: Cmax): 144 ± 5.3 µM
half-life ([1]; NIH-III nude, mouse, in vivo, ip, 135 mg/kg, plasma): 182 min
Detection in brain [1]: undetectable in brain
AUC ([1]; liver): 93.3 µmol·h/kg
Cmax ([1]; liver): 40.0 ± 3.0 µmol/kg
AUC ([1]; plasma): 349 µmol·h/kg

[O-][n+]1nc(CCCN2CCOCC2)[n+]([O-])c2cc3c(cc21)CCC3 [SN30000, 3-(3-Morpholinopropyl)-7,8-dihydro-6H-indeno[5,6-e][1,2,4]triazine 1,4-dioxide]
Non-respiratory O2 consumption and H2O2 generation (redox cycling) (CHO/POR cells): strongly stimulated O2 consumption and H2O2 formation
Bias [2, 3]: -0.12%
Measured conc [2, 3]: 0.50 µM
Bias [2, 4]: -0.22%
Measured conc [2, 4]: 4.99 µM
Bias [2, 5]: 7.93%
Measured conc [2, 5]: 53.97 µM
Measured conc [2, 6]: 0.48 µM
Bias [2, 7]: 1.44%
Measured conc [2, 7]: 4.92 µM
Bias [2, 8]: 2.04%
Measured conc [2, 8]: 53.90 µM
Bias [2, 9]: -0.80%
Measured conc [2, 9]: 0.50 µM
Bias [2, 10]: -7.17%
Measured conc [2, 10]: 4.64 µM
Bias [2, 11]: 5.03%
Measured conc [2, 11]: 52.5 µM
Bias [2, 12]: -7.83%
Measured conc [2, 12]: 0.46 µM
Bias [2, 13]: -7.91%
Measured conc [2, 13]: 4.60 µM
Bias [2, 14]: -7.21%
Measured conc [2, 14]: 46.39 µM
Bias [2, 15]: -3.33%
Measured conc [2, 15]: 0.48 µM
Bias [2, 16]: -7.29%
Measured conc [2, 16]: 4.64 µM
Bias [2, 17]: -4.85%
Measured conc [2, 17]: 47.57 µM
Bias [2, 18]: 1.31%
Measured conc [2, 18]: 0.51 µM
Bias [2, 19]: 0.11%
Measured conc [2, 19]: 5.01 µM
Bias [2, 20]: 2.32%
Measured conc [2, 20]: 51.16 µM
Bias [2, 21]: -14.4%
Measured conc [2, 21]: 0.43 µM
Bias [2, 22]: -12.3%
Measured conc [2, 22]: 4.38 µM
Bias [2, 23]: -14.9%
Measured conc [2, 23]: 42.53 µM
Bias [2, 24]: -10.09%
Measured conc [2, 24]: 0.45 µM
Bias [2, 25]: -12.57%
Measured conc [2, 25]: 4.37 µM
Bias [2, 26]: -8.13%
Measured conc [2, 26]: 45.94 µM
Bias [2, 27]: 0.56%
Measured conc [2, 27]: 0.50 µM
Bias [2, 28]: -2.87%
Measured conc [2, 28]: 4.86 µM
Bias [2, 29]: 6.72%
Measured conc [2, 29]: 53.36 µM
